Results as given in patent US20020094524A1, “Compositions and methods for inhibiting HIV infection” (priority 2000, published 2002).

Columns and labels:
TNF-α = assay: LPS-stimulated TNF-α production in MDM (ELISA); type: cell-based, human; details: 10^−9 to 10^−7M; LPS 1 ng/ml; 24 h; concentration-dependent (FIG. 11)
Description: In order to determine the role of CP-96,345 in the regulation of cytokine secretion, 7-day-cultured MDM were incubated with or without CP-96,345 (10^−9 to 10^−7M) and/or LPS (1 ng/ml) for 24 h. The culture supernatants were collected to determine TNF-α and IL-6 levels by ELISA. The ELISA kits were purchased from Endogen, Inc. (Woburn, Mass.).

SP mRNA = SP mRNA expression in MDM (real-time RT-PCR); type: cell-based, human; details: 4 hours; indicated concentration (FIG. 17)
Description: FIG. 17. A graph showing the effect of CP-96,345 on SP mRNA expression in MDM. The MDM were incubated with (+) or without (−) the NK-1R antagonist at the indicated concentration for 4 hours. The SP mRNA levels were determined by a real-time RT-PCR. The SP mRNA levels in the CP-96,345 treated MDM are expressed as a percentage of that in untreated MDM which are defined as 100%.
The effect of CP-96,345 on SP mRNA expression in MDM was also determined. The MDM were incubated with (+) or without (−) the NK-1R antagonist at the indicated concentration for 4 hours. The SP mRNA levels were determined by a real-time RT-PCR.

Structure (SMILES): COc1ccccc1CN[C@H]1C2CCN(CC2)[C@H]1C(c1ccccc1)c1ccccc1 [CP-96,345, 2S, 3S)-cis-2-(diphenylmethyl)-N-[(2-methoxyphenyl)-methyl]-1-azabicyclo[[2.2.2]octan-3-amine]
- LPS-stimulated TNF-α production in MDM (TNF-α): attenuated
- SP mRNA expression in MDM (SP mRNA): significantly inhibited
